Results from patent US20090257979A1, “Novel Inhibitors of Hepatitis C Virus Replication” (INTERMUNE, INC., priority 2008, published 2009).

Assays:
HCV Replicon = HCV Replicon inhibition; type: cell-based; settings: Hepatitis C virus
NS5B polymerase protein = target: T1, NS5B polymerase protein (Hepatitis C virus genotype 1a, UniProt P27958); test: biochemical; settings: pre-incubated 37° C. 30 minutes; RdRp reaction 90 minutes at 37° C.; read-out: HCV NS5B inhibition EC50
T1 construct: pre-incubated with the RNA template and NS5B polymerase protein; Replizyme
Method: The compounds were tested in the Replizyme HCV heterotemplate radioactive RNA-dependent RNA-polymerase (RdRp) assay. The test compounds were pre-incubated with the RNA template and NS5B polymerase protein at 37° C. for 30 minutes. The RdRp reaction was initiated with the addition of the NTPs to the buffer-NS5B-compound mix, and was allowed to proceed for 90 minutes at 37° C. Control reactions included: no enzyme, 5% DMSO (test compound solvent), no compound/solvent, Cordycepin-TP and HCV-796 (IC50 values used as a reference inhibition). Radioactive products were collected by applying the stopped reaction to DE-81 paper, air dried prior to washing with buffer comprising NaH2PO4 and sodium pyrophosphate to remove unincorporated ^32P-GTP in the NTP mix, and rinsed with dH2O followed by 100% ethanol. The DE-81 paper was air dried, squares cut out and placed in scintillation tubes for counting.

T1 sequence (P27958 2421-3011): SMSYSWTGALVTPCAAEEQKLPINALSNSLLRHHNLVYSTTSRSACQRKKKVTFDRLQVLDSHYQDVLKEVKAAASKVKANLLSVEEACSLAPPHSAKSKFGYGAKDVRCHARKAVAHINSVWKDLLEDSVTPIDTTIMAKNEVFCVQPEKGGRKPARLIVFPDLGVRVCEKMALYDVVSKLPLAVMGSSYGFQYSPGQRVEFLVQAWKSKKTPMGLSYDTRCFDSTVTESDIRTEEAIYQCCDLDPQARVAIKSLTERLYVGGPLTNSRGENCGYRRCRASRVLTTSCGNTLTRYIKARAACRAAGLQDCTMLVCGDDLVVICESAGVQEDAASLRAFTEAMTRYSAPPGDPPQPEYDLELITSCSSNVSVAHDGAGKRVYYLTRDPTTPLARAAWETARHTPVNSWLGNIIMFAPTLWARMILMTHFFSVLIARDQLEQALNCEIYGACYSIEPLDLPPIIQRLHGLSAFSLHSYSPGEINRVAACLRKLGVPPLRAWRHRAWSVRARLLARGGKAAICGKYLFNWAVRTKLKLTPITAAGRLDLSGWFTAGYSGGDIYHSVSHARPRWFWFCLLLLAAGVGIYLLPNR

| Structure (SMILES) | EC50 (HCV Replicon) [µM] | EC50 (NS5B polymerase protein) [µM] |
| --- | --- | --- |
| CC(C)CCn1cc(C2=NS(=O)(=O)c3cc(NS(C)(=O)=O)ccc3N2)c2ccc(C(C)C)cc21 [Compound 211] | 10 to 50 | 1 to 10 |
| CC(C)CCn1nc(C2=NS(=O)(=O)c3ccccc3N2)c2ccccc21 [Compound 202] | 10 to 50 | 10 to 50 |
| CS(=O)(=O)Nc1ccc2c(c1)S(=O)(=O)N=C(c1c(O)n3ccccc3c(CCC3CC3)c1=O)N2 [Compound 253] | 0.1 to 1 | 1 to 10 |
| CC(C)CCn1cc(C2=NS(=O)(=O)c3ccccc3N2)c2ccccc21 [Compound 201] | 10 to 50 | 10 to 50 |
| CS(=O)(=O)Nc1ccc2c(c1)S(=O)(=O)N=C(c1c(O)n3ccccc3c(Cc3cccs3)c1=O)N2 [Compound 244] | – | < 0.1 |
| Cc1cc2n(CCC(C)C)c(=O)c(C3=NS(=O)(=O)c4cc(NS(C)(=O)=O)ccc4N3)c(O)n2n1 [Compound 233, N-{3-[7-Hydroxy-2-methyl-4-(3-methyl-butyl)-5-oxo-4,5-dihydro-pyrazolo[1,5-a]pyrimidin-6-yl]-1,1-dioxo-1,4-dihydro-1lambda*6*-benzo[1,2,4]thiadiazin-7-yl}-methanesulfonamide] | < 0.1 | 1 to 10 |
| O=S1(=O)NC(c2c(O)c(Br)c3ccccc3c2O)=Nc2ccccc21 [Compound 105, 4-bromo-1,3-dihydroxy-2-(1,1-dioxo-2H-(1,2,4)-benzothiadiazin-3-yl)naphthalene] | 1 to 10 | 1 to 10 |
| CS(=O)(=O)Nc1ccc2c(c1)S(=O)(=O)N=C(c1c(O)n3nccc3n(CCc3ccc(F)cc3)c1=O)N2 [Compound 232, N-(3-{4-[2-(4-Fluoro-phenyl)-ethyl]-7-hydroxy-5-oxo-4,5-dihydro-pyrazolo[1,5-a]pyrimidin-6-yl}-1,1-dioxo-1,4-dihydro-1lambda*6*-benzo[1,2,4]thiadiazin-7-yl)-methanesulfonamide] | < 0.1 | > 50 |
| CC(C)CCC1(C)C(=O)C(C2=NS(=O)(=O)c3cc(NS(C)(=O)=O)ccc3N2)=C(O)c2nccn21 (centres unmarked) [Compound 215] | – | 1 to 10 |
| CC(C)CCn1nc(C2=NS(=O)(=O)c3cc(NS(C)(=O)=O)ccc3N2)c2ccccc21 [Compound 204] | 10 to 50 | 0.1 to 1 |
| CS(=O)(=O)Nc1ccc2c(c1)S(=O)(=O)N=C(c1c(O)n3nccc3n(Cc3ccccc3)c1=O)N2 [Compound 230, N-[3-(4-Benzyl-7-hydroxy-5-oxo-4,5-dihydro-pyrazolo[1,5-a]pyrimidin-6-yl)-1,1-dioxo-1,4-dihydro-1lambda*6*-benzo[1,2,4]thiadiazin-7-yl]-methanesulfonamide] | < 0.1 | 1 to 10 |
| CS(=O)(=O)Nc1ccc2c(c1)S(=O)(=O)N=C(c1cccc(C(F)(F)F)c1)N2 [Compound 224] | < 0.1 | 10 to 50 |
| CC(C)CCn1cc(C2=NS(=O)(=O)c3cc(NS(C)(=O)=O)ccc3N2)c2ccccc21 [Compound 203] | > 50 | 0.1 to 1 |
| CC(C)CCc1c2n(c(O)c(C3=NS(=O)(=O)c4cc(NS(C)(=O)=O)ccc4N3)c1=O)CCCC2 [Compound 220] | 0.1 to 1 | < 0.1 |
| CC(C)CCn1c(=O)c(C2=NS(=O)(=O)c3cc(NS(C)(=O)=O)ccc3N2)c(O)n2ncnc12 [Compound 235, N-{3-[7-Hydroxy-4-(3-methyl-butyl)-5-oxo-4,5-dihydro-[1,2,4]triazolo[1,5-a]pyrimidin-6-yl]-1,1-dioxo-1,4-dihydro-1lambda*6*-benzo[1,2,4]thiadiazin-7-yl}-methanesulfonamide] | < 0.1 | 1 to 10 |
| CC(C)CCn1cc(C2=NS(=O)(=O)c3cc(NS(C)(=O)=O)ccc3N2)c2ccc(O)cc21 [Compound 210] | 10 to 50 | 0.1 to 1 |
| Cc1cc2c(o1)c(C1=NS(=O)(=O)c3cc(NS(C)(=O)=O)ccc3N1)c(=O)n1ccccc21 [Compound 242] | – | 10 to 50 |
| CC(C)(C)CCc1c(=O)c(C2=NS(=O)(=O)c3cc(NS(C)(=O)=O)ccc3N2)c(O)n2ccccc12 [Compound 227] | < 0.1 | < 0.1 |
| COc1cccc2c1c(C1=NS(=O)(=O)c3cc(NS(C)(=O)=O)ccc3N1)cn2CCC(C)C [Compound 205] | 10 to 50 | 10 to 50 |
| CC(C)CCn1c(=O)c(C2=NS(=O)(=O)c3ccccc3N2)c(O)n2ccnc12 [Compound 221, 6-(1,1-Dioxo-1,4-dihydro-1lambda*6*-benzo[1,2,4]thiadiazin-3-yl)-5-hydroxy-8-(3-methyl-butyl)-8H-imidazo[1,2-a]pyrimidin-7-one] | > 50 | 0.1 to 1 |

| Structure (SMILES) | EC50 (HCV Replicon) [µM] | EC50 (NS5B polymerase protein) [µM] |
| --- | --- | --- |
| CC(C)CCn1c(=O)c(C2=NS(=O)(=O)c3cc(NS(C)(=O)=O)ccc3N2)c(O)n2ccnc12 [Compound 222, N-{3-[5-Hydroxy-8-(3-methyl-butyl)-7-oxo-7,8-dihydro-imidazo[1,2-a]pyrimidin-6-yl]-1,1-dioxo-1,4-dihydro-1lambda*6*-benzo[1,2,4]thiadiazin-7-yl}-methanesulfonamide] | 0.1 to 1 | < 0.1 |
| CC(C)CCC1(C)C(=O)C(C2=Nc3ccccc3S(=O)(=O)N2)=C(O)c2cccn21 (centres unmarked) [Compound 213] | 10 to 50 | < 0.1 |
| CC(C)CCC1(C)C(=O)C(C2=NS(=O)(=O)c3cc(NS(C)(=O)=O)ccc3N2)=C(O)c2ccnn21 (centres unmarked) [Compound 223] | 1 to 10 | < 0.1 |
| CC(C)CCC1(C)C(=O)C(C2=NS(=O)(=O)c3cc(NS(C)(=O)=O)ccc3N2)=C(O)c2cccn21 (centres unmarked) [Compound 214] | 0.1 to 1 | < 0.1 |
| CC(C)CCc1c(=O)c(C2=NS(=O)(=O)c3cc(NS(=O)(=O)C4CC4)ccc3N2)c(O)n2ccccc12 [Compound 226] | < 0.1 | < 0.1 |
| COc1ccc2c(C3=NS(=O)(=O)c4cc(NS(C)(=O)=O)ccc4N3)cn(CCC(C)C)c2c1 [Compound 206] | > 50 | 1 to 10 |
| CC(C)CCc1c(=O)c(C2=NS(=O)(=O)c3cc(NS(C)(=O)=O)ccc3N2)c(O)n2cc(F)ccc12 [Compound 250] | < 0.1 | < 0.1 |
| CC(C)CCn1cc(C2=NS(=O)(=O)c3cc(NS(C)(=O)=O)ccc3N2)c2cc(Br)ccc21 [Compound 212] | > 50 | 1 to 10 |
| CS(=O)(=O)Nc1ccc2c(c1)S(=O)(=O)N=C(c1c(O)n3ccccc3c(Cc3ccccc3)c1=O)N2 [Compound 238, N-[3-(1-Benzyl-4-hydroxy-2-oxo-2H-quinolizin-3-yl)-1,1-dioxo-1,4-dihydro-1lambda′6′-benzo[1,2,4]thiadiazin-7-yl]-methanesulfonamide] | < 0.1 | < 0.1 |
| CC(C)CCn1cc(C2=NS(=O)(=O)c3cc(NS(C)(=O)=O)ccc3N2)c2cc(Cl)ccc21 [Compound 207] | > 50 | 1 to 10 |
| CS(=O)(=O)Nc1ccc2c(c1)S(=O)(=O)N=C(c1c(O)n3ccccc3c(Cc3ccc(F)cc3)c1=O)N2 [Compound 228] | < 0.1 | < 0.1 |
| COc1ccc(Cc2c(=O)c(C3=NS(=O)(=O)c4cc(NS(C)(=O)=O)ccc4N3)c(O)n3ccccc23)cc1 [Compound 245] | < 0.1 | 0.1 to 1 |
| CC(C)CCc1c(O)c(C2=Nc3ccccc3S(=O)(=O)N2)c(O)c2ccccc12 [Compound 104, 1,3-dihydroxy-2-(1,1-dioxo-2H-(1,2,4)-benzothiadiazin-3-yl)-4-(3-methylbutyl)naphthalene] | 1 to 10 | 0.1 to 1 |
| CS(=O)(=O)Nc1ccc2c(c1)S(=O)(=O)N=C(c1c(O)n3nccc3n(Cc3ccc(F)cc3)c1=O)N2 [Compound 231, N-{3-[4-(4-Fluoro-benzyl)-7-hydroxy-5-oxo-4,5-dihydro-pyrazolo[1,5-a]pyrimidin-6-yl]-1,1-dioxo-1,4-dihydro-1lambda*6*-benzo[1,2,4]thiadiazin-7-yl}-methanesulfonamide] | < 0.1 | 10 to 50 |
| CC(C)CCn1cc(C2=NS(=O)(=O)c3cc(NS(C)(=O)=O)ccc3N2)c2cccc(Cl)c21 [Compound 208] | > 50 | 0.1 to 1 |
| Cc1cccc2c(CCC(C)C)c(=O)c(C3=NS(=O)(=O)c4cc(NS(C)(=O)=O)ccc4N3)c(O)n12 [Compound 249] | < 0.1 | 0.1 to 1 |
| CS(=O)(=O)Nc1ccc2c(c1)S(=O)(=O)N=C(c1c(O)n3ccccc3c(Cc3ccc(F)c(F)c3)c1=O)N2 [Compound 236, N-{3-[1-(3,4-Difluoro-benzyl)-4-hydroxy-2-oxo-2H-quinolizin-3-yl]-1,1-dioxo-1,4-dihydro-1lambda′6′-benzo[1,2,4]thiadiazin-7-yl}-methanesulfonamide] | < 0.1 | < 0.1 |
| CC(C)CCn1c(=O)c(C2=NS(=O)(=O)c3cc(NS(C)(=O)=O)ccc3N2)c(O)n2nccc12 [Compound 229, N-{3-[7-Hydroxy-4-(3-methyl-butyl)-5-oxo-4,5-dihydro-pyrazolo[1,5-a]pyrimidin-6-yl]-1,1-dioxo-1,4-dihydro-1lambda*6*-benzo[1,2,4]thiadiazin-7-yl}-methanesulfonamide] | < 0.1 | 0.1 to 1 |
| Cc1ccc2c(CCC(C)C)c(=O)c(C3=NS(=O)(=O)c4cc(NS(C)(=O)=O)ccc4N3)c(O)n2c1 [Compound 252] | < 0.1 | < 0.1 |
| CC(C)CCn1cc(C2=NS(=O)(=O)c3cc(NS(C)(=O)=O)ccc3N2)c2c(O)cccc21 [Compound 209] | > 50 | 0.1 to 1 |
